The text below walks through data of ChEMBL document CHEMBL1201862, “PubChem BioAssay data set” (2004).

Among the test systems are 786-0; A498; A549; EKVX; M14; MDA-MB-435; NCI-H226; NCI-H23; NCI/ADR-RES; OVCAR-4; OVCAR-8; SK-MEL-28; SK-MEL-2; SN12C; TK-10; UACC-62; UO-31; CCRF-CEM; LOX IMVI; Malme-3M.
What all share (assay): growth of human tumour cells (NCI), 48 h

The structures appear in SMILES notation.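 How tested: cells in 96-well plates exposed to compound for 48 hours at five concentrations. Here, GI50 denotes the concentration required for 50% inhibition of growth.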 Calls of active or inactive are those of the source. No stated cut-off is given here; in the data, active = GI50 up to about 1.1 µM and inactive = higher.

With `CC1(C)O[C@@H]([C@H](O)CO)[C@H](O)[C@@H](C2SCCCS2)O1`, the GI50 was > 100 µM (inactive) in the assay on 786-0; 59.8 µM (inactive) in the assay with A498; > 100 µM (inactive) in the assay on A549; > 100 µM (inactive) in the assay with EKVX; > 100 µM (inactive) in the assay on M14; > 100 µM (inactive) with MDA-MB-435. Moreover, the GI50 in the assay on NCI-H226, in the assay with NCI-H23, in the assay on NCI/ADR-RES, in the assay with OVCAR-4, in the assay with OVCAR-8 and in the assay on SK-MEL-28 was > 100 µM (inactive) throughout. For the same compound, the GI50 in the assay with SK-MEL-2, with SN12C, in the assay on TK-10, in the assay on UACC-62 and in the assay with UO-31 was > 100 µM (inactive) in each case.
Turning to `COc1cccc(-c2cc(O)c3cc(N4CCCC4)ccc3n2)c1`, the GI50 is < 0.001 µM (active) in the assay on 786-0; < 0.001 µM (active) in the assay with A549; < 0.001 µM (active) in the assay with CCRF-CEM; 0.166 µM (active) in the assay with EKVX; < 0.001 µM (active) in the assay on LOX IMVI; < 0.001 µM (active) in the assay on M14. Also, the GI50 in the assay with MDA-MB-435 was < 0.001 µM (active); in the assay with Malme-3M, < 0.001 µM (active); in the assay with NCI-H226, < 0.001 µM (active); with NCI-H23, 0.00279 µM (active); in the assay with NCI/ADR-RES, < 0.001 µM (active); in the assay on OVCAR-4 it was 2.67 µM (inactive). The GI50 was < 0.001 µM (active) in the assay with OVCAR-8; < 0.001 µM (active) with SK-MEL-28; < 0.001 µM (active) with SK-MEL-2; < 0.001 µM (active) in the assay with SN12C; 2.6 µM (inactive) in the assay on TK-10; < 0.001 µM (active) in the assay on UACC-62. Moreover, the GI50 with UO-31 is < 0.001 µM (active).
On to `Cc1nc(-c2cc3ccccc3oc2=O)cs1`, for which the GI50 was 34 µM (inactive) in the assay on 786-0; > 100 µM (inactive) in the assay on A549; > 100 µM (inactive) in the assay on CCRF-CEM; 34.2 µM (inactive) in the assay with EKVX; > 100 µM (inactive) with LOX IMVI; > 100 µM (inactive) in the assay on M14. Further, the GI50 was > 100 µM (inactive) in the assay on MDA-MB-435; 7.23 µM (inactive) in the assay on Malme-3M; 30.3 µM (inactive) in the assay with NCI-H226; 78.5 µM (inactive) with NCI/ADR-RES; > 100 µM (inactive) with OVCAR-4; 47 µM (inactive) in the assay with OVCAR-8. Also, the GI50 was > 100 µM (inactive) with SK-MEL-28; 85.3 µM (inactive) in the assay with SK-MEL-2; > 100 µM (inactive) in the assay with SN12C; 37.4 µM (inactive) with TK-10; 31.3 µM (inactive) with UACC-62; > 100 µM (inactive) in the assay with UO-31.
For `COc1cc(C2c3cc4c(cc3OC(NNS(=O)(=O)c3ccc(C)cc3)C2C)OCO4)cc(OC)c1O` (stereo not drawn), the GI50 was 16.6 µM (inactive) in the assay on 786-0; 7.98 µM (inactive) in the assay on A498; 11.7 µM (inactive) with A549; 7.94 µM (inactive) with CCRF-CEM; 11.7 µM (inactive) with EKVX; 12 µM (inactive) in the assay with LOX IMVI. Further, the GI50 in the assay with M14 was 15.6 µM (inactive); in the assay with MDA-MB-435, 3.21 µM (inactive); in the assay with Malme-3M it was 5.85 µM (inactive); with NCI-H226, 9.16 µM (inactive); in the assay with NCI-H23, 9.89 µM (inactive); with NCI/ADR-RES, 6.68 µM (inactive). In addition, the GI50 with OVCAR-4 is 6.32 µM (inactive); in the assay with OVCAR-8, 6.82 µM (inactive); with SK-MEL-28, 28.9 µM (inactive); with SN12C, 19 µM (inactive); in the assay with TK-10, 5.41 µM (inactive); in the assay on UACC-62, 15.2 µM (inactive).
Turning to `C1=C(CC2=C[P+](c3ccccc3)(c3ccccc3)C=C(c3ccccc3)O2)OC(c2ccccc2)=C[P+]1(c1ccccc1)c1ccccc1`, the GI50 in the assay on 786-0 is 0.684 µM (active); in the assay with A498, 0.716 µM (active); with A549, 0.494 µM (active); with CCRF-CEM, 0.361 µM (active); with EKVX it was 0.44 µM (active); in the assay with LOX IMVI, 0.431 µM (active). The GI50 in the assay on M14 was 0.573 µM (active); with MDA-MB-435 it was 0.304 µM (active); in the assay on Malme-3M, 0.248 µM (active); in the assay on NCI-H23 it was 0.448 µM (active); with NCI/ADR-RES, 14.3 µM (inactive); in the assay on OVCAR-8, 0.239 µM (active). In addition, the GI50 in the assay with SK-MEL-28 was 0.724 µM (active); in the assay on SN12C, 0.339 µM (active); in the assay on TK-10 it was 0.475 µM (active); with UO-31, 1.56 µM (inactive).
For `Cc1cn(C2CC(N=[N+]=[N-])C(COP(=O)(O)OCC3OC(n4cc(F)c(=O)[nH]c4=O)CC3O)O2)c(=O)[nH]c1=O` (stereo not drawn), the GI50 with 786-0 is 0.381 µM (active); in the assay with A498, 3.37 µM (inactive); in the assay with A549, 0.368 µM (active); with CCRF-CEM it was 0.312 µM (active); in the assay with EKVX, 6.46 µM (inactive); in the assay on LOX IMVI, 0.653 µM (active). The GI50 in the assay with M14 was 10.9 µM (inactive); with MDA-MB-435 it was 16 µM (inactive); in the assay on NCI-H226 it was > 100 µM (inactive); in the assay on NCI-H23, 4.05 µM (inactive); in the assay on NCI/ADR-RES, 0.57 µM (active); in the assay with OVCAR-8, 5.94 µM (inactive). The GI50 in the assay on SK-MEL-28 was > 77.4 µM (inactive); with SK-MEL-2 it was > 100 µM (inactive); with SN12C, > 100 µM (inactive); in the assay with TK-10, > 100 µM (inactive); in the assay with UACC-62, 8.34 µM (inactive); in the assay with UO-31 it was 0.465 µM (active).
With `COCc1nc2c(OC)c(-c3nc4ccc(N5CCN(C)CC5)nc4[nH]3)cc(OC)c2n1C`, the GI50 is 43.7 µM (inactive) in the assay on 786-0; 35.7 µM (inactive) with A549; 21 µM (inactive) in the assay on CCRF-CEM; 21 µM (inactive) in the assay with EKVX; 19.1 µM (inactive) with LOX IMVI; 21.3 µM (inactive) with M14. The GI50 in the assay on MDA-MB-435 is 20.4 µM (inactive); with Malme-3M it was 19.4 µM (inactive); in the assay on NCI-H226, 22.4 µM (inactive); with NCI-H23, 58.3 µM (inactive); with NCI/ADR-RES, 55 µM (inactive); with OVCAR-4, 34 µM (inactive). In addition, the GI50 in the assay with OVCAR-8 was 33.9 µM (inactive); with SK-MEL-28, 23.4 µM (inactive); in the assay with SK-MEL-2, 22 µM (inactive); in the assay on SN12C, 80 µM (inactive); in the assay on UACC-62, 20.7 µM (inactive); in the assay with UO-31, 22 µM (inactive).
With `CCC(=O)O[C@H]1CC[C@H]2[C@@H]3CCC4=C/C(=N/OC(=O)c5cccc6c(=O)c7ccccc7[nH]c56)CC[C@]4(C)[C@H]3CC[C@]12C`, the GI50 with 786-0 is 18.4 µM (inactive); in the assay with A498, 27.1 µM (inactive); with A549 it was 43.5 µM (inactive); in the assay with CCRF-CEM, 14 µM (inactive); with EKVX, 8.53 µM (inactive); in the assay with LOX IMVI it was 23.3 µM (inactive). Besides, the GI50 in the assay with M14 is 24.7 µM (inactive); in the assay on MDA-MB-435, 27.6 µM (inactive); in the assay with NCI-H226 it was 33.8 µM (inactive); in the assay with NCI-H23, 51.3 µM (inactive); in the assay on NCI/ADR-RES, 31.7 µM (inactive); in the assay on OVCAR-4, 38.2 µM (inactive). The GI50 in the assay with OVCAR-8 was 29.9 µM (inactive); in the assay with SK-MEL-28, 28.7 µM (inactive); in the assay with SK-MEL-2, 31.6 µM (inactive); in the assay on SN12C, 42.9 µM (inactive); in the assay with TK-10 it was 54.6 µM (inactive); in the assay with UACC-62, 28.8 µM (inactive). Also, the GI50 with UO-31 was 26.4 µM (inactive).
Turning to `CC1(C)OC2C(CO)OC(n3cnc(N)nc3=O)C2O1` (stereo not drawn), the GI50 with 786-0, in the assay with A498, in the assay with A549, with CCRF-CEM, in the assay with EKVX and in the assay with LOX IMVI was > 100 µM (inactive) throughout. Moreover, the GI50 in the assay on M14, in the assay with MDA-MB-435, in the assay on NCI-H226, in the assay on NCI-H23, with NCI/ADR-RES and in the assay on OVCAR-8 was > 100 µM (inactive) in each case. For the same compound, the GI50 in the assay on SK-MEL-28, in the assay with SK-MEL-2, with SN12C, in the assay with TK-10, in the assay with UACC-62 and with UO-31 was > 100 µM (inactive) throughout.
In the case of `COc1ccc(/C=c2\c(=O)[nH]c3nc4ccccc4c(=O)n23)cc1`, the GI50 in the assay on 786-0 is 99.5 µM (inactive); with A549, 91.4 µM (inactive); with CCRF-CEM, 39.9 µM (inactive); in the assay with EKVX, 54.1 µM (inactive); in the assay on LOX IMVI, 45.9 µM (inactive); in the assay on M14 it was 75.2 µM (inactive). In addition, the GI50 in the assay with MDA-MB-435 was 51.2 µM (inactive); in the assay with Malme-3M, 58.5 µM (inactive); with NCI-H226, 74.6 µM (inactive); in the assay on NCI-H23 it was 73.8 µM (inactive); in the assay on NCI/ADR-RES, > 100 µM (inactive); in the assay on OVCAR-4, > 100 µM (inactive). For the same compound, the GI50 with OVCAR-8 was > 100 µM (inactive); in the assay with SK-MEL-28, 42.5 µM (inactive); with SK-MEL-2 it was > 100 µM (inactive); with SN12C, 55.1 µM (inactive); in the assay with TK-10 it was > 100 µM (inactive); in the assay on UACC-62, 42 µM (inactive). In the assay with UO-31, the GI50 is 44.7 µM (inactive).
For `Cc1cc2c(-c3ccccc3)cc(=O)[nH]c2cc1N`, the GI50 with 786-0, with A498, in the assay on A549, with CCRF-CEM, in the assay with EKVX and in the assay with LOX IMVI was > 100 µM (inactive) each time. The GI50 in the assay on M14, in the assay on MDA-MB-435, in the assay on NCI-H226, in the assay on NCI-H23, with NCI/ADR-RES and in the assay with OVCAR-4 was > 100 µM (inactive) throughout. In addition, the GI50 with OVCAR-8, in the assay on SK-MEL-28, with SK-MEL-2, in the assay with SN12C, with UACC-62 and in the assay on UO-31 was > 100 µM (inactive) each time.
